# Measured values published in PMC3542062, “A phenyl-thiadiazolylidene-amine derivative ejects zinc from retroviral nucleocapsid zinc fingers and inactivates HIV virions” (Retrovirology, 2012).
# What was measured:
# SIV Mac251 = experiment: MT-4/MTT-assay, protection against virus-induced cytopathic effect; type: cell-based; settings: MT-4 cells, MTT, 5 days after infection
# [1] = Cytotoxicity in mock-infected MT-4 cells (MTT); type: cell-based; settings: human, mock-infected MT-4 cells
# [2] = Cytostatic activity, CEM cell proliferation; type: cell-based, human; settings: human, CEM T-lymphocyte cells
# HIV-1 IIIB = experiment: GFP-assay in Jurkat A72 (LTR-GFP) cells; type: cell-based; settings: Human immunodeficiency virus 1, IIIB, 72 h, 3 days after infection
# NL4.3/WT = experiment: GFP-assay in Jurkat A72 (LTR-GFP) cells; type: cell-based, HIV-1; settings: Human immunodeficiency virus 1, Jurkat, 72 h, read-out: EC50 NL4.3/WT
# NL4.3/DS5000R = experiment: GFP-assay in Jurkat A72 (LTR-GFP) cells; type: cell-based, HIV-1; settings: Human immunodeficiency virus 1, Jurkat, 72 h, read-out: EC50 NL4.3/DS5000R
# ETH2220 subtype C = experiment: Virucidal assay on clinical isolates, titration on PBMCs; type: cell-based, HIV-1; settings: 125 μM, 1 h 37°C, untreated control 64969
# BZ163 subtype F = experiment: as above; type: cell-based, HIV-1; settings: 125 μM, 1 h 37°C, untreated control 16242
# BCF-Dioum subtype G = experiment: as above; type: cell-based, HIV-1; settings: 125 μM, 1 h 37°C, untreated control 25781
# [3] = system: HIV-1 NL4.3 transmission from Raji/DC-SIGN cells to C8166 cells; experiment: Transmission of DC-SIGN-captured pretreated virus to C8166 cells (procedure B); type: cell-based; settings: Human immunodeficiency virus 1; Raji/DC-SIGN exposed to compound-pretreated (1 h) HIV, compound removed, cocultured with C8166
# [4] = system: HIV-1 NL4.3 transmission from Raji/DC-SIGN cells to C8166 cells; experiment: Transmission of DC-SIGN-captured virus to C8166 cells in presence of compound (procedure C); type: cell-based; settings: Human immunodeficiency virus 1; HIV-captured Raji/DC-SIGN cocultivated with C8166 in presence of compound; giant cell formation
# HIV-1 virus particles = experiment: Virion-associated genomic RNA of pre-treated virus (RT-qPCR, Northern blot); settings: compound-cleared HIV-1 virus stock, RT-qPCR or Northern blot
# NC(11-55) = experiment: Inhibition of NC(11-55)-induced destabilization of cTAR (Rh6G-cTAR-Dabcyl fluorescence); type: biochemical, HIV-1
# Experimental: The NCp7-induced destabilization of cTAR can be sensitively monitored by using the doubly labeled Rh6G-5^′-cTAR-3^′-Dabcyl derivative.
# (A) Emission spectra of Rh6G-cTAR-Dabcyl (0.1 μM) recorded in the absence (circle) or in the presence of NCp7(11-55) (1 μM) (square). […] Excitation wavelength was 520 nm. […] Excitation wavelength was 520 nm.
# An extinction coefficient at 260 nm of 521,910 M^–1 x cm^–1 was used for cTAR. All experiments were performed at 20°C in 25 mM Tris–HCl, pH 7.5, 30 mM NaCl, and 0.2 mM MgCl2[28].
# Absorption spectra were recorded on a Cary 400 spectrophotometer. Fluorescence spectra were recorded at 20°C on a Fluorolog spectrofluorometer (Horiba, Jobin-Yvon), equipped with a thermostated cell compartment. Excitation wavelength was 295 nm and 520 nm, for NC(11-55) and Rh6G-5^′-cTAR-3^′-Dabcyl, respectively. The spectra were corrected for dilution and buffer fluorescence. The protein spectra were additionally corrected for screening effects due to the zinc ejecting agent, using:
# [5] = system: HIV-1 IIIB chronically-infected HuT-78 cells; experiment: Gag processing in virions from HIV-1 IIIB chronically-infected HuT-78 cells (western blot); type: cell-based; settings: HuT-78/IIIB cells treated 43 hours; WDO-217 50, 25 μM; ritonavir 2.7 μM; SRR-SB3 75, 15 μM
# Experimental: Recently, it has been shown that this new mechanism involves acetylation of the NCp7 region of Gag, thereby blocking Gag processing.
# HIV-1 IIIB virions from persistently infected HuT-78 cells treated with different concentrations of compound were analysed by gel electrophoresis and immunoblotted with antibody against capsid.
# Chronically-infected HIV-1 IIIB HuT-78 cells (HuT-78/IIIB) were washed four times with PBS to remove all free virions before treatment and 2 × 10^5 cells were resuspended in 1 ml compound-containing medium for 43 hours at 37°C. Then, virions were prepared from clarified supernatants (10 min at 300 g) by centrifugation at 36670 g for 2 hours at 4°C. Protein from lysed virions were separated by SDS-PAGE on a NuPage® Novex 4-12% Bis-Tris gel (Invitrogen) and transferred on a hydrophobic polyvinylidene difluoride (PVDF) membrane (Amersham Hybond™-P). The blot was blocked overnight at 4°C by 5% dry milk powder in Western blot wash solution (WBWS; PBS + 0.5% Tween 20), washed three times for 5 minutes with WBWS and incubated with a mouse anti-HIV-1 p24 antibody (1:5000) from Abcam. The blot was then washed three times for 5 minutes with WBWS and incubated for 1 h with a goat anti-mouse IgG-HRP secondary antibody (1:2500) from Santa Cruz Biotechnology. […]
# CMV = experiment: Activity against replication of non-retroviruses; type: cell-based
# VSV = type: cell-based
# RSV = experiment: Activity against replication of non-retroviruses; type: cell-based
# [6] = MTT-based viability assay in Jurkat cells; settings: human
# [7] = system: HIV-1 NL4.3 capture by Raji/DC-SIGN cells; experiment: HIV capture by Raji/DC-SIGN cells (procedure A), p24 ELISA; settings: HIV pretreated 1 h with compound, then Raji/DC-SIGN cells; p24 of washed cell pellet
# Experimental: After 60 minutes of pre-incubation with the Raji/DC-SIGN cells, unabsorbed virus and test compound were carefully removed by repeated washing steps, and the amount of captured virus was determined by measurement of the virus-associated p24 content on the Raji/DC-SIGN cell surface. The α(1-3)/(1-6)-mannose-specific plant lectin HHA was included as a positive control for inhibition of virus capture by Raji/DC-SIGN cells.
# Then, 0.5 ml exponentially growing Raji/DC-SIGN cells (10^6 cells) was added, and the suspension further incubated at 37°C for 60 minutes. Subsequently, 39 ml medium was added and the cell suspension was centrifuged at 300 g for 10 minutes. The obtained pellet was washed again with 40 ml medium and after centrifugation, the cell pellet (containing DC-SIGN-bound virus) was analyzed for p24 antigen content by ELISA. […] In the above-described experiments, the mannose-binding entry inhibitor HHA was included as a reference compound.
# HIV-2 ROD = experiment: Virucidal assay: virus pre-incubated with compound, diluted, titrated on MT-4 cells; settings: for CCID50/ml HIV-2 ROD: no drug 5.4 × 10^6
# [8] = 10 μM compound, 1 μM NC(11-55), 0.1 μM cTAR
smiles,measurement,setting,value
"Cn1sc(=N)nc1-c1ccccc1 [WDO-217, 2-methyl-3-phenyl-2H-[1,2,4]thiadiazol-5-ylideneamine]",EC50,SIV Mac251,5.3 ± 1.5 µM
same,EC50,"SIV Mac251; Simian immunodeficiency virus, MT4, 120 h",5 ± 1 µM
same,CC50 at 5 days,[1],~72 µM
same,CC50,[2],94 ± 15 µM
same,EC50,HIV-1 IIIB,1.04 ± 0.2 µM
same,EC50,NL4.3/WT,0.9 ± 0.05 µM
same,EC50,NL4.3/DS5000R,1.2 ± 0.1 µM
same,CCID50/ml ETH2220 subtype C,ETH2220 subtype C,2558 CCID50/ml
same,CCID50/ml BZ163 subtype F,BZ163 subtype F,2558 CCID50/ml
same,CCID50/ml BCF-Dioum subtype G,BCF-Dioum subtype G,2558 CCID50/ml
same,IC50,[3],2.2 ± 1 µM
same,IC50,[4],8.3 ± 0.4 µM
same,viral genomic RNA content after treatment,HIV-1 virus particles,clear decrease
same,time to 50% inhibition of NC(11-55)-induced cTAR destabilization,NC(11-55); [8],less than 5 minutes
same,time to complete inhibition of NC(11-55)-induced cTAR destabilization,NC(11-55); [8],50 min
same,NC(11-55) ability to destabilize cTAR after preincubation,NC(11-55); molar ratio 10:1 compound to NC(11-55),full loss
same,accumulation of unprocessed Gag polyprotein in progeny virus,[5],did not result in a drastic accumulation
same,activity against replication of CMV,CMV,inactive
same,activity against replication of VSV,VSV,inactive
same,activity against replication of RSV,RSV,inactive
same,CC50,[6],75 ± 11 µM
same,IC50 HIV-capture procedure A,[7],not able to prevent binding
same,CCID50/ml HIV-2 ROD,HIV-2 ROD; virus incubated 1 h 37°C with 0.2 μM,1.6 × 10^6 CCID50/ml
same,CCID50/ml HIV-2 ROD,HIV-2 ROD; virus incubated 1 h 37°C with 1 μM,1 × 10^6 CCID50/ml
same,CCID50/ml HIV-2 ROD,HIV-2 ROD; virus incubated 1 h 37°C with 5 μM,2.1 × 10^6 CCID50/ml
same,CCID50/ml HIV-2 ROD,HIV-2 ROD; virus incubated 1 h 37°C with 25 μM,0 CCID50/ml
same,CCID50/ml HIV-2 ROD,HIV-2 ROD; virus incubated 1 h 37°C with 625 μM,0 CCID50/ml
same,Infectivity of pre-incubated HIV-2 virus,"HIV-2 ROD; virus incubated at 26, 130 and 650 μM, 1 h 37°C",no longer able to infect cells
